From patent publication US20250049827A1, “A PHARMACEUTICAL COMPOSITION FOR THE TREATMENT OF OTIC INFECTIONS” (Intervet Inc., priority 2021, published 2025)
Read-outs that look alike come from different tables or passages of the source.

Assays:
[1] = cited from earlier work
[2] = Pilot ear depletion study: gentamicin concentration in ear wax; format: in vivo
Description: An ear depletion study was performed to assess gentamicin concentration in ear wax. It was determined that the gentamicin concentrations detected in the ear wax were high enough to be effective against gentamicin resistant Pseudomonas aeruginosa.

[3] = test system: gentamicin resistant Pseudomonas aeruginosa; conditions: MIC studies performed in the US; cited from earlier work

| Compound | solubility ([1]; in acetone and chloroform) | solubility ([1]; in methanol, ethanol, and isopropanol) | solubility ([1]; in tetrahydro furan) | solubility ([1]; in water) | Total Gentamicin Concentration (mg/g) [Mean ± STD] ([2]; 24 hours post dose, Left ear) | Total Gentamicin Concentration (mg/g) [Mean ± STD] ([2]; 24 hours post dose, Right ear) | Total Gentamicin Concentration (mg/g) [Mean ± STD] ([2]; 72 hours post dose, Left ear) | Total Gentamicin Concentration (mg/g) [Mean ± STD] ([2]; 72 hours post dose, Right ear) | Total Gentamicin Concentration (mg/g) [Mean ± STD] ([2]; 168 hours post dose, Left ear) | Total Gentamicin Concentration (mg/g) [Mean ± STD] ([2]; 168 hours post dose, Right ear) | Total Gentamicin Concentration (mg/g) [Mean ± STD] ([2]; 240 hours post dose, Left ear) | Total Gentamicin Concentration (mg/g) [Mean ± STD] ([2]; 240 hours post dose, Right ear) | Total Gentamicin Concentration (mg/g) [Mean ± STD] ([2]; 336 hours post dose, Left ear) | Total Gentamicin Concentration (mg/g) [Mean ± STD] ([2]; 336 hours post dose, Right ear) | highest MIC [3] |
| --- | --- | --- | --- | --- | --- | --- | --- | --- | --- | --- | --- | --- | --- | --- | --- |
| C[C@@H]1C[C@H]2[C@@H]3CCC4=CC(=O)C=C[C@]4(C)[C@@]3(Cl)[C@@H](O)C[C@]2(C)[C@@]1(OC(=O)c1ccco1)C(=O)CCl [Mometasone Furoate, 9,21-Dichloro-1 1 (beta), 17-dihydroxy-16 (alpha)-methylpregna-1,4-diene-3,20-dione 17-(2 Furoate)] | soluble | slightly soluble | freely soluble | practically insoluble |  |  |  |  |  |  |  |  |  |  |  |
| Gentamicin |  |  |  |  | 11.51 ± 8.68 mg/g | 11.96 ± 10.11 mg/g | 8.15 ± 2.94 mg/g | 8.66 ± 5.00 mg/g | 3.78 ± 1.55 mg/g | 3.97 ± 3.38 mg/g | 1.87 ± 1.49 mg/g | 2.29 ± 1.36 mg/g | 1.46 ± 2.08 mg/g | 2.25 ± 2.44 mg/g | 64 µg/mL |
